Measurements as given in US20240148821A1, “PHARMACEUTICAL USE OF CYCLIC PEPTIDE COMPOUND” (CHUGAI SEIYAKU KABUSHIKI KAISHA, priority 2021, published 2024).
Numbered stars: 1 amine (or outer) side, 2 acyl side, 3 side chain; on linkers, the order of the positions; unused ones are H or OH. Bridge positions count the residues as written; N and C are the ends. Square brackets hold non-standard residues; d marks the D form. Peptide text beside a SMILES is read from it. * marks the point of attachment. hPhe(3,5-F2-4-CF3) = N[C@@H](CCc1cc(F)c(C(F)(F)F)c(F)c1)C(=O)O; hPhe(3-Cl-4-CF3) = N[C@@H](CCc1ccc(C(F)(F)F)c(Cl)c1)C(=O)O; hPhe(3-F,4-CF3) = N[C@@H](CCc1ccc(C(F)(F)F)c(F)c1)C(=O)O; NEtPhe(4-CF3) = CCN[C@@H](Cc1ccc(C(F)(F)F)cc1)C(=O)O; NMePhe(4-CF3) = CN[C@@H](Cc1ccc(C(F)(F)F)cc1)C(=O)O; 3Oxa8azabicyclo(3.2.1)octane = C1CC2COCC1N2*; NMePhe(4-Me) = CN[C@@H](Cc1ccc(C)cc1)C(=O)O; NMeNle(6-CHF2) = CN[C@@H](CCCCC(F)F)C(=O)O; NMedβ3hAla = C[C@H](CC(=O)[*:2])N(C)[*:1]; NMeAla(cPent) = CN[C@@H](CC1CCCC1)C(=O)O; NMePhe(2-F) = CN[C@@H](Cc1ccccc1F)C(=O)O; NMeGly(cPent) = CN[C@H](C(=O)O)C1CCCC1; NMe3Pal = CN[C@@H](Cc1cccnc1)C(=O)O; NMeCha = CN[C@@H](CC1CCCCC1)C(=O)O; NMeGly(cPr) = CN[C@H](C(=O)O)C1CC1; Hyp = O=C(O)[C@@H]1C[C@@H](O)CN1; NMeChg = CN[C@H](C(=O)O)C1CCCCC1; NMeI = CC[C@H](C)[C@H](NC)C(=O)O; NMeD = CN[C@@H](CC(=O)O)C(=O)O; NMeL = CN[C@@H](CC(C)C)C(=O)O; Oxazolidin(3-yl) = C1CN(*)CO1; NMeNva = CCC[C@H](NC)C(=O)O; NMeV = CN[C@H](C(=O)O)C(C)C; d(β3hA) = C[C@@H](N)CC(=O)O; NMeS = CN[C@@H](CO)C(=O)O; Ac6c = NC1(C(=O)O)CCCCC1; NMeA = CN[C@@H](C)C(=O)O; Piperidide = C1CCN(*)CC1; Pyrrolidide = C1CCN(*)C1; dNMeA = CN[C@H](C)C(=O)O; Ac5c = NC1(C(=O)O)CCCC1; Aze = O=C(O)[C@@H]1CCN1; Cyclopropyl = C1CC1*; Isopentyl = CC(C)CC*; NEtG = CCNCC(=O)O; Sar = CNCC(=O)O

Key:
[1] = target: protein-protein interaction between Kras and SOS1 (biotin-tagged human Kras loaded with GDP, His-tagged human SOS1) (Homo sapiens (Human), UniProt P01116, G12D); test: Protein-protein interaction inhibition between Kras and SOS1 (KrasG12D-SOS PPI) using AlphaScreen; assay type: biochemical; details: AlphaScreen; biotin-tagged human Kras loaded with GDP, His-tagged human SOS1; read-out: KRAS G12D-SOS PPI IC50;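 also: kras produced in E. coli, Ni-coupled donor beads and streptavidin acceptor beads, excitation 680 nm with emission detected at 520–620 nm via singlet oxygen transfer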
[2] = system: Human pancreatic cancer cell line AsPC-1 (G12D mutation Kras); test: AsPC-1 cell growth inhibition (AsPC-1 CGI); assay type: cell-based; details: read-out: AsPC-1 cell growth inhibition, 50% growth inhibitory concentration (IC50 value); 96 hours, CellTiter-Glo, values classified in ranges

Compound	IC50 [1] [nM]	IC50 [2] [nM]
CCC[C@H]1C(=O)N[C@@H]([C@@H](C)CC)C(=O)N(C)CC(=O)N(C)CC(=O)N(C)[C@@H](CC2CCCC2)C(=O)N(C)CC(=O)N[C@@H](CCc2ccc(C(F)(F)F)c(Cl)c2)C(=O)N(C)[C@@H](Cc2cccnc2)C(=O)NC2(CCCC2)C(=O)N(C)[C@@H](C2CCCCC2)C(=O)N(C)[C@H](C(=O)N2CCCC2)CC(=O)N1C [Compound 1946] ([NMeNva]I[Sar][Sar][NMeAla(cPent)][Sar][hPhe(3-Cl-4-CF3)][NMe3Pal][Ac5c][NMeChg][NMeD]-Pyrrolidide; lactam N-11)	1.5	> 500
CC[C@H](C)[C@@H]1NC(=O)[C@H](CC(C)C)N(C)C(=O)C[C@@H](C(=O)N2CCCCC2)N(C)C(=O)[C@H](CCCCC(F)F)N(C)C(=O)C2(CCCC2)NC(=O)[C@@H]2CCCN2C(=O)[C@H](CCc2ccc(C(F)(F)F)c(Cl)c2)NC(=O)CN(C)C(=O)[C@H](CC2CCCCC2)N(C)C(=O)[C@@H]2CCN2C(=O)[C@H](C)N(C)C1=O [Compound 1123] ([NMeL]I[NMeA][Aze][NMeCha][Sar][hPhe(3-Cl-4-CF3)]P[Ac5c][NMeNle(6-CHF2)][NMeD]-Piperidide; lactam N-11)	180	> 500
CC[C@H](C)[C@@H]1NC(=O)[C@H](CC(C)C)N(C)C(=O)C[C@@H](C(=O)N2CCCCC2)N(C)C(=O)[C@H](C2CCCCC2)N(C)C(=O)C2(CCCC2)NC(=O)[C@H](COCCC(C)C)N(C)C(=O)[C@H](CCc2ccc(C(F)(F)F)c(Cl)c2)NC(=O)CN(C)C(=O)[C@H](CC2CCCCC2)N(C)C(=O)CN(C)C(=O)CN(C)C1=O [Compound 940] ([NMeL]I[Sar][Sar][NMeCha][Sar][hPhe(3-Cl-4-CF3)][NMeS](Isopentyl)[Ac5c][NMeChg][NMeD]-Piperidide; lactam N-11)	150	> 500
CC[C@H](C)[C@@H]1NC(=O)[C@H](CC(C)C)N(C)C(=O)C[C@@H](C(=O)N2CCOC2)NC(=O)[C@H](C(C)C)N(C)C(=O)C2(CCCC2)NC(=O)[C@@H]2CCCN2C(=O)[C@H](CCc2ccc(C(F)(F)F)c(Cl)c2)NC(=O)CN(C)C(=O)[C@H](CC2CCCCC2)N(C)C(=O)[C@@H]2CCN2C(=O)[C@H](C)N(C)C1=O [Compound 1188] ([NMeL]I[NMeA][Aze][NMeCha][Sar][hPhe(3-Cl-4-CF3)]P[Ac5c][NMeV]D-{Oxazolidin(3-yl)}; lactam N-11)	33	> 500
CCO[C@@H]1C[C@H]2C(=O)NC3(CCCC3)C(=O)N(C)[C@@H](C3CCCCC3)C(=O)N(C)[C@H](C(=O)N3C4CCC3COC4)CC(=O)N(C)[C@@H](CC(C)C)C(=O)N[C@@H]([C@@H](C)CC)C(=O)N(C)CC(=O)N(C)CC(=O)N(C)[C@@H](CC3CCCCC3)C(=O)N(C)CC(=O)N[C@@H](CCc3ccc(C(F)(F)F)c(Cl)c3)C(=O)N2C1 [Compound 1977] ([NMeL]I[Sar][Sar][NMeCha][Sar][hPhe(3-Cl-4-CF3)][Hyp](Et)[Ac5c][NMeChg][NMeD]-{3Oxa8azabicyclo(3.2.1)octane}; lactam N-11)	0.47	≤ 20
CC[C@H](C)[C@@H]1NC(=O)[C@H](CC(C)C)N(C)C(=O)C[C@@H](C)NC(=O)[C@H]([C@@H](C)CC)N(C)C(=O)C2(CCCC2)NC(=O)[C@@H]2CCCN2C(=O)[C@H](CCc2ccc(C(F)(F)F)c(Cl)c2)NC(=O)CN(C)C(=O)[C@H](Cc2ccc(C)cc2)N(C)C(=O)[C@@H]2CCN2C(=O)[C@H](C)N(C)C1=O [Compound 1661] (cyclo([Ac5c][NMeI][d(β3hA)][NMeL]I[NMeA][Aze][NMePhe(4-Me)][Sar][hPhe(3-Cl-4-CF3)]P))	2.7	≤ 20
CC[C@H](C)[C@@H]1NC(=O)[C@H](CC(C)C)N(C)C(=O)C[C@@H](C(=O)N2CCCCC2)N(C)C(=O)[C@H](C2CC2)N(C)C(=O)C2(CCCC2)NC(=O)[C@@H]2CCCN2C(=O)[C@H](CCc2ccc(C(F)(F)F)c(Cl)c2)NC(=O)CN(C)C(=O)[C@H](CC2CCCCC2)N(C)C(=O)[C@@H]2CCN2C(=O)[C@H](C)N(C)C1=O [Compound 1822] ([NMeL]I[NMeA][Aze][NMeCha][Sar][hPhe(3-Cl-4-CF3)]P[Ac5c][NMeGly(cPr)][NMeD]-Piperidide; lactam N-11)	50	> 500
CC[C@H](C)[C@@H]1NC(=O)[C@H](CC(C)C)N(C)C(=O)C[C@@H](C(=O)N2CCCC2)N(C)C(=O)[C@H]([C@@H](C)CC)N(C)C(=O)C2(CCCC2)NC(=O)[C@@H]2CCCN2C(=O)[C@H](CCc2cc(F)c(C(F)(F)F)c(F)c2)NC(=O)CN(C)C(=O)[C@H](Cc2ccc(C(F)(F)F)cc2)N(CC)C(=O)[C@@H]2CCN2C(=O)[C@H](C)N(C)C1=O [Compound 1175] ([NMeL]I[NMeA][Aze][NEtPhe(4-CF3)][Sar][hPhe(3,5-F2-4-CF3)]P[Ac5c][NMeI][NMeD]-Pyrrolidide; lactam N-11)	0.79	≤ 20
CCO[C@@H]1C[C@H]2C(=O)NC3(CCCC3)C(=O)N(C)[C@@H](C3CCCC3)C(=O)N(C)[C@H](C)CC(=O)N(C)[C@@H](CC(C)C)C(=O)N[C@@H]([C@@H](C)CC)C(=O)N(C)CC(=O)N(C)CC(=O)N(C)[C@@H](Cc3ccc(C(F)(F)F)cc3)C(=O)N(C)CC(=O)N[C@@H](CCc3cc(F)c(C(F)(F)F)c(F)c3)C(=O)N2C1 [Compound 66] (cyclo([Ac5c][NMeGly(cPent)][NMedβ3hAla][NMeL]I[Sar][Sar][NMePhe(4-CF3)][Sar][hPhe(3,5-F2-4-CF3)][Hyp](Et)))	3.6	≤ 20
CC[C@H](C)[C@@H]1NC(=O)[C@H](CC(C)C)N(C)C(=O)C[C@@H](C(=O)N2CCCCC2)N(C)C(=O)[C@H](COC2CC2)N(C)C(=O)C2(CCCC2)NC(=O)[C@@H]2CCCN2C(=O)[C@H](CCc2ccc(C(F)(F)F)c(Cl)c2)NC(=O)CN(C)C(=O)[C@H](CC2CCCCC2)N(C)C(=O)[C@@H]2CCN2C(=O)[C@H](C)N(C)C1=O [Compound 1690] ([NMeL]I[NMeA][Aze][NMeCha][Sar][hPhe(3-Cl-4-CF3)]P[Ac5c][NMeS](Cyclopropyl)[NMeD]-Piperidide; lactam N-11)	97	> 500
CC[C@H](C)[C@@H]1NC(=O)[C@H](C)N(C)C(=O)C[C@@H](C(=O)N2CCCCC2)N(C)C(=O)[C@H](C(C)C)N(C)C(=O)C2(CCCC2)NC(=O)[C@@H]2CCCN2C(=O)[C@H](CCc2ccc(C(F)(F)F)c(Cl)c2)NC(=O)[C@@H](C)N(C)C(=O)[C@H](CC2CCCCC2)N(C)C(=O)[C@@H]2CCCN2C(=O)CN(C)C1=O [Compound 307] ([NMeA]I[Sar]P[NMeCha][dNMeA][hPhe(3-Cl-4-CF3)]P[Ac5c][NMeV][NMeD]-Piperidide; lactam N-11)	4.4	> 500
CC[C@H](C)[C@@H]1NC(=O)[C@H](C)N(C)C(=O)C[C@@H](C)NC(=O)[C@H](C2CCCC2)N(C)C(=O)C2(CCCC2)NC(=O)[C@@H]2CCCN2C(=O)[C@H](CCc2ccc(C(F)(F)F)c(Cl)c2)NC(=O)CN(C)C(=O)[C@H](CC2CCCCC2)N(C)C(=O)[C@@H]2CCN2C(=O)[C@H](C)N(C)C1=O [Compound 1491] (cyclo([Ac5c][NMeGly(cPent)][d(β3hA)][NMeA]I[NMeA][Aze][NMeCha][Sar][hPhe(3-Cl-4-CF3)]P))	3.7	> 500
CC[C@H](C)[C@@H]1NC(=O)[C@H](C)N(C)C(=O)C[C@@H](C(=O)N2CCCCC2)N(C)C(=O)[C@H](C(C)C)N(C)C(=O)C2(CCCC2)NC(=O)[C@H](Cc2ccccc2F)N(C)C(=O)[C@H](CCc2ccc(C(F)(F)F)c(Cl)c2)NC(=O)CN(C)C(=O)[C@H](CC2CCCCC2)N(C)C(=O)CN(C)C(=O)CN(C)C1=O [Compound 492] ([NMeA]I[Sar][Sar][NMeCha][Sar][hPhe(3-Cl-4-CF3)][NMePhe(2-F)][Ac5c][NMeV][NMeD]-Piperidide; lactam N-11)	12	> 500
CCO[C@@H]1C[C@H]2C(=O)NC3(CCCC3)C(=O)N(C)[C@@H](C3CCCC3)C(=O)N(C)[C@H](C)CC(=O)N(C)[C@@H](CC(C)C)C(=O)N[C@@H]([C@@H](C)CC)C(=O)N(C)[C@@H](C)C(=O)N3CC[C@H]3C(=O)N(C)[C@@H](Cc3ccc(C(F)(F)F)cc3)C(=O)N(C)CC(=O)N[C@@H](CCc3cc(F)c(C(F)(F)F)c(F)c3)C(=O)N2C1 [Compound 344] (cyclo([Ac5c][NMeGly(cPent)][NMedβ3hAla][NMeL]I[NMeA][Aze][NMePhe(4-CF3)][Sar][hPhe(3,5-F2-4-CF3)][Hyp](Et)))	0.83	≤ 20
CC[C@H](C)[C@@H]1NC(=O)[C@H](CC(C)C)N(C)C(=O)C[C@@H](C(=O)N(C)C)N(C)C(=O)[C@H](C2CCCC2)N(C)C(=O)C2(CCCC2)NC(=O)[C@@H]2CCCN2C(=O)[C@H](CCc2ccc(C(F)(F)F)c(F)c2)NC(=O)CN(CC)C(=O)[C@H](CC2CCCCC2)N(C)C(=O)[C@@H]2CCN2C(=O)[C@H](C)N(C)C1=O [Compound 1205] ([NMeL]I[NMeA][Aze][NMeCha][NEtG][hPhe(3-F,4-CF3)]P[Ac5c][NMeGly(cPent)][NMeD]-NMe2; lactam N-11)	2.8	≤ 20
CC[C@H](C)[C@@H]1NC(=O)[C@H](CC(C)C)N(C)C(=O)C[C@@H](C(=O)N2CCCCC2)N(C)C(=O)[C@H](C(C)C)N(C)C(=O)C2(CCCCC2)NC(=O)[C@@H]2CCCN2C(=O)[C@H](CCc2ccc(C(F)(F)F)c(Cl)c2)NC(=O)CN(C)C(=O)[C@H](CC2CCCCC2)N(C)C(=O)[C@@H]2CCN2C(=O)[C@H](C)N(C)C1=O [Compound 1708] ([NMeL]I[NMeA][Aze][NMeCha][Sar][hPhe(3-Cl-4-CF3)]P[Ac6c][NMeV][NMeD]-Piperidide; lactam N-11)	10	> 500
